In patent US20060058217A1, “Compositions and methods for treatment of ovarian cancer” (priority 2003, published 2006):

Legend:
[1] = test system: splenic cytotoxic T-cells; assay: redirected lysis assay of spleen cells co-cultured with tumor ascites inhibitory cells; assay type: cell-based, mouse; conditions: antalarmin 0.5 to 1 micromolar; 3 days co-culture in vitro; stimulation with anti-CD3/CD28 monoclonal antibodies
Protocol: To assess the IL-2 responsiveness of T-cells within murine ascites, whole populations of cells were cultured overnight for up to 3 days with IL-2 and then tested for lytic activity using the redirected lysis assay. The assay was similar to the assay described for human cells but an anti-mouse CD3 monoclonal antibody (2C11) was used instead of OKT3. While control splenic cells from non-tumor bearing mice contained cytotoxic T-cell lytic function, the ascites samples had no IL-2 responsive T-cell lytic activity.
Experiments were then performed with antalarmin, a CRH receptor antagonist, to determine if manipulation of CRH activity was involved in the regulation of lytic activity in ovarian carcinoma cells. Spleen cells from normal non-tumor bearing mice were co-cultured in vitro for 3 days with tumor ascites inhibitory cells from the mouse model system. […]
Freshly isolated reproductive tract cells were tested for lytic function by an anti-CD3 mAb (OKT3)-dependent redirected lysis assay (White et al., J. Immunology 158:3017, 1997). […] The chromium released into the supernatant fraction was measured to obtain the percent specific cytotoxicity (% specific lysis), i.e. percent of labeled target cells killed by CD3+ effector cells, using duplicate wells and a titration of 3 effector to target ratios. […]

[2] = test system: stimulated splenic T-cells (CD3+ and CD8+); assay: FACS analysis of splenic CD3+ and CD8+ cells co-cultured with tumor ascites inhibitory cells; assay type: cell-based, mouse; conditions: antalarmin 0.5 to 1 micromolar; co-culture with tumor ascites inhibitory cells
spleen cells = assay: splenic cell yields after challenge with ID8 murine ovarian carcinoma cells; assay type: in vivo, C57BL6 mice
Description: Normal C57BL6 mice were challenged with ID8 murine ovarian carcinoma cells (intraperitoneally) in the presence of control vehicle (diluent), antalarmin, T-cell stimulation with 2C11 antibody, or antalarmin plus T-cell stimulation. Ten days after challenge, spleen cells were harvested and T-cells were restimulated with either antibody to the T-cell receptor and co-receptor or ID8 tumor cells in the presence of antalarmin, antibody stimulation, or a combination of antalarmin plus antibodies to T-cell receptor and co-receptor. Six days later, cells were harvested and tested for splenic cell yields. […] Treatment with tumor cells plus antalarmin plus antibody stimulation in the in vivo priming phase, followed by restimulation with irradiated tumor cells in the presence of antalarmin, provided conditions also favorable for preventing spleen cell loss induced by tumor cells. Thus, antalarmin was an important factor in preserving immune cells in vivo in the initial phases of ovarian cancer disease.

[3] = test system: implantation sites and live embryos; conditions: rodents; antalarmin administration; cited from earlier work
Fas ligand = conditions: resulting in decreased apoptosis of fetal cell-recognizing T-cells; cited from earlier work

SMILES: CCCCN(CC)c1nc(C)nc2c1c(C)c(C)n2-c1c(C)cc(C)cc1C [antalarmin]
- cytotoxic T-cell lytic function down-regulated by tumor ascites inhibitory cells [1]: prevented the down-regulation
- loss of CD3-stimulated T-cells mediated by murine ascites inhibitory cells [2]: prevent the loss of CD3− stimulated T-cells
- loss of spleen cells at early stages of ovarian carcinoma disease (spleen cells; ID8 cells intraperitoneally, spleen cells harvested ten days after challenge, restimulated, yields tested six days later): prevented the loss of spleen cells
- splenic cell yields (spleen cells; antalarmin added to tumor cells for in vivo priming phase, then non-specific stimulation or no stimulation in restimulation phase): best yields of spleen cells
- number of implantation sites and live embryos [3]: decreased the number of implantation sites an live embryos
- fetal cell Fas ligand expression (Fas ligand): decrease fetal cell Fas ligand expression
